Target: T1, human Edg-1 receptor (Homo sapiens, UniProt P21453)
T1 construct: FLAG (N); expressed in transfected cells; membrane preparation
Experiment: GTP-γ-S assay using human Edg-1 receptors (scintillation proximity assay, CHO Flp-In membrane preparation)
Format: biochemical
Settings: test compound at 10 μM; high control 10 μM S1P = 100% activation; membranes of CHO Flp-In cells overexpressing human Edg-1; read-out: % activation (Edg-1 receptor activation in percent of the activation by 10 μM S1P)
Text: A) GTP-γ-S Assay Using Human Edg-1 Receptors
In order to determine the Edg-1 receptor activation by the compounds of the invention, a GTP-γ-S (GTP-γ-S=guanosine 5′-[thio]triphosphate) assay for G-protein coupled receptor binding based on the scintillation proximity assay principle was used, employing a cell membrane preparation from a CHO Flp-In cell line which constitutively overexpresses the human Edg-1 receptor.
A membrane preparation was obtained by standard methods from the aforedescribed CHO Flp-In cell line constitutively overexpressing the human Edg-1 receptor. Briefly, the cryopreserved cells were taken in culture and grown until confluency in T175 cell culture flasks (Becton Dickinson, cat. no. 35 5001). Cell culture was stopped by washing with calcium-free phosphate-buffered saline (PBS; Gibco, cat. no. 14190), and cells were harvested with a rubber-policeman in 4° C. cold and calcium-free PBS supplemented with a protease inhibitor cocktail (complete protease inhibitor; Roche, cat. no. 1697498; 1 tablet per 50 ml) and subsequently centrifuged at 4° C. for 15 min at 1100×g (Heraeus Minifuge T). For cell lysis, the pellet was resuspended in a 4° C. cold hypotonic buffer consisting of 5 mM HEPES (Sigma-Aldrich, cat. no. H-0981), 1 mM EDTA (disodium salt; Merck, cat. no. 8418) supplemented with protease inhibitor cocktail (as above) in which cells were stored for another 15 min on ice. After lysis, cells were centrifuged at 4° C. for 10 min at 400×g (Heraeus Minifuge T). The pellet was disrupted in a Dounce homogenizer, diluted with the supernatant of the previous centrifugation and subsequently centrifuged at 4° C. for 10 min at 500×g (Heraeus Minifuge T) in order to separate nuclei and still intact cells from the membranes mainly present in the supernatant. The supernatant was then diluted in hypotonic buffer and centrifuged (Beckmann, Avanti J251) at approximately 18600×g for 2 h at 4° C. After centrifugation, the membrane pellet was resuspended in a storing buffer consisting of 20 mM HEPES; 150 mM NaCl (Merck, cat. no. 6400), 1 mM EDTA (as above) supplemented with protease inhibitor cocktail (as above). The membrane preparation was aliquoted and stored at −80° C. Protein concentration of the membrane preparation was determined in a sample by means of a commercial protein assay (Bio-Rad, DC Protein Assay, cat. nos. 500-0113, 500-0114, 500-0115).
The Edg-1 membrane preparation obtained in (b) was employed in a commercially available scintillation proximity assay (SPA) kit for G-protein coupled receptor binding from Amersham Biosciences/GE Healthcare (code RPNQ0210), in which ligand-induced binding of ^35S-radiolabeled GTP-γ-S to the receptor-containing membrane, which is bound to scintillation beads, stimulates the emission of light and allows the quantification of the in vitro activity of the Edg-1 agonistic compound. The assay was performed on a 96-well plate substantially according to the manufacturer's instructions. Before starting the experiments, scintillation beads were suspended in a reconstitution buffer consisting of Tris-HCl (pH 7.4) supplemented with 0.1% (w/v) sodium azide and subsequently diluted on ice with assay buffer (consisting of 20 mM HEPES, 100 mM NaCl, 1 mM EDTA (as above), 1 mM dithiothreitol (DTT), adjusted to pH 7.4) to a final bead concentration of 30 mg/ml.
Wells were charged with 10 μl of the specified assay buffer, 10 μl of a 100 μM guanosine diphosphate (GDP) solution, and 10 μl of a solution of the test compound in assay buffer/dimethyl sulfoxide resulting in a final concentration of the test compound of 10 μM. For the high controls, 10 μl of a solution of sphingosine-1-phosphate (S1P; Sigma, cat. no. S-9666), resulting in a final S1P concentration of 10 μM, and for the low controls 10 μl of assay buffer, was added into the respective wells instead of the solution of the test compound. All wells contained equivalent amounts of dimethyl sulfoxide. […]

T1 sequence (P21453 whole entry): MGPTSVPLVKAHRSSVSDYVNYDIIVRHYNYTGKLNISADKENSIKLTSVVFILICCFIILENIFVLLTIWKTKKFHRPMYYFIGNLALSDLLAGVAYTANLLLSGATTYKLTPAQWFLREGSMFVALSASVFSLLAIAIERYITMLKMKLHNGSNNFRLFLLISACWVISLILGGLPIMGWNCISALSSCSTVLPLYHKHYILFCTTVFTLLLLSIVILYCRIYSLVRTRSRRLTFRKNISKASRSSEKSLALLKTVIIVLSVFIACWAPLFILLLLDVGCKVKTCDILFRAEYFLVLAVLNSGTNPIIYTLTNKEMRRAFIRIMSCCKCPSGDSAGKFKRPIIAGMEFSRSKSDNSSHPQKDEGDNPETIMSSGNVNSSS

Row | activation at 10 µM [%] | Structure (SMILES)
1 | 94 | CCCc1nc(Oc2cc(F)ccc2F)nc2oc(-c3cc(C)c(OCC(=O)O)c(C)c3)nc12 [Example 1, {4-[5-(2,5-Difluorophenoxy)-7-propyloxazolo[5,4-d]pyrimidin-2-yl]-2,6-dimethylphenoxy}acetic acid]
2 | 97 | CCCc1nc(OCCC(F)(F)F)nc2oc(-c3cc(C)c(OCC(=O)O)c(C)c3)nc12 [Example 2, {2,6-Dimethyl-4-[7-propyl-5-(3,3,3-trifluoropropoxy)oxazolo[5,4-d]pyrimidin-2-yl]phenoxy}acetic acid]
3 | 92 | Cc1cc(-c2nc3c(CC(C)C)nc(Oc4ccccc4F)nc3o2)cc(C)c1OCC(=O)O [Example 3, {4-[5-(2-Fluorophenoxy)-7-isobutyloxazolo[5,4-d]pyrimidin-2-yl]-2,6-dimethylphenoxy}acetic acid]
4 | 106 | Cc1cc(-c2nc3c(CC(C)C)nc(OCCC(F)(F)F)nc3o2)cc(C)c1OCC(=O)O [Example 4, {4-[7-Isobutyl-5-(3,3,3-trifluoropropoxy)oxazolo[5,4-d]pyrimidin-2-yl]-2,6-dimethylphenoxy}acetic acid]
5 | 86 | Cc1cc(-c2nc3c(CC(C)C)nc(Oc4cccc(Cl)c4)nc3o2)cc(C)c1OCC(=O)O [Example 5, {4-[5-(3-Chlorophenoxy)-7-isobutyloxazolo[5,4-d]pyrimidin-2-yl]-2,6-dimethylphenoxy}acetic acid]
6 | 118 | CCCc1nc(Oc2cccc(Cl)c2)nc2oc(-c3cc(C)c(OCC(=O)O)c(C)c3)nc12 [Example 6, {4-[5-(3-Chlorophenoxy)-7-propyloxazolo[5,4-d]pyrimidin-2-yl]-2,6-dimethylphenoxy}acetic acid]
7 | 38 | Cc1cc(-c2nc3c(CC(C)C)nc(Cc4ccc(Cl)cc4)nc3o2)cc(C)c1OCC(=O)O [Example 7, {4-[5-(4-Chlorobenzyl)-7-isobutyloxazolo[5,4-d]pyrimidin-2-yl]-2,6-dimethylphenoxy}acetic acid]
8 | 98 | Cc1cc(-c2nc3c(CC(C)C)nc(Cc4ccccc4)nc3o2)cc(C)c1OCC(=O)O [Example 8, [4-(5-Benzyl-7-isobutyloxazolo[5,4-d]pyrimidin-2-yl)-2,6-dimethylphenoxy]acetic acid]
9 | 90 | Cc1cc(-c2nc3c(C(C)C)nc(Cc4ccc(Cl)cc4)nc3o2)cc(C)c1OCC(=O)O [Example 9, {4-[5-(4-Chlorobenzyl)-7-isopropyloxazolo[5,4-d]pyrimidin-2-yl]-2,6-dimethylphenoxy}acetic acid]

— patent publication US9321787B2, “Carboxylic acid derivatives having an oxazolo[5,4-d]pyrimidine ring” (SANOFI, priority 2011, dated 2016)
